Results on one compound are retold here after paper PMC4033217, “Characterization of Novel PI3Kδ Inhibitors as Potential Therapeutics for SLE and Lupus Nephritis in Pre-Clinical Studies” (Frontiers in Immunology, 2014).

Read-outs that look alike come from different tables or passages of the source.

The test system of one data set is CD19+ B cells. As to the kind of experiment: B cell cytokine release assay (anti-Ig, CpG ODN 2006, IFNα). It counts as cell-based. The note with it: Homo sapiens, 48 h. As to the method:
Cytokines in the supernatants were measured with Cytometric Bead Array kits (BD Biosciences Pharmingen, San Diego, CA, USA).

Data set [1] can be described thus: Intrinsic clearance in mouse liver microsomes. Type of data set: in vitro ADME. The note with it: read-out: In vitro Clint. From the text: (§1) 36 CLint: intrinsic clearance in liver microsomes. h/m: human/mouse. Papp: apparent permeability. uPPB:
(§2) 37 unbound plasma protein binding. […]
(In general: Liver microsomes are a subcellular fraction often used to study metabolism.)

Data set [2] relates to CD69 on B220+ B cells, mouse whole blood. As to the kind of experiment: Anti-IgD-induced CD69 in mouse whole blood (in vitro). It counts as cell-based. The note with it: B-cell. As for the experimental part: Whole blood withdrawn from naïve C57BL/6N mice (Charles River Laboratories, L’Arbresle, France) were incubated with PI3Kδ inhibitors for 30 min and stimulated with 1/12 goat anti-mouse IgD antiserum (eBioscience, San Diego, CA, USA) for 4 h before staining with anti-B220-PerCP-Cy5.5 and anti-CD69-PE (all BD Biosciences Pharmingen, San Diego, CA, USA) for 30 min at room temperature. After red blood cells lysis, B220^+IgD^+ cells were gated for CD69 analysis.

In the next data set the test system is pAkt and CD69 in B cells. In words: Ex vivo mouse whole blood assays (pAkt, CD69) after oral dosing. The note with it: for ED50: Mus musculus, B-cell, naïve C57BL/6N mice, read-out: ED50 inhibition of pAkt and CD69. Type of data set: in vivo. As to the method: PI3Kδ inhibitors were administered to naïve C57BL/6N mice (Charles River Laboratories, L’Arbresle, France), by gavage at indicated time points before heparinized whole blood was obtained and divided into two aliquots. One aliquot was incubated with anti-IgD as stimulation and another PBS as basal control. pAkt in B cells or CD69 up-regulation on B cell surface of each sample was measured as described for the in vitro assays. The difference between stimulated and basal levels of mean fluorescence intensity (MFI) was calculated as Δ value.

The nature of data set [3]: Intrinsic clearance in human liver microsomes. Type of data set: in vitro ADME. The note with it: read-out: In vitro Clint.
Source text: as §1, §2

In the next data set the target is Hck (Homo sapiens, UniProt P08631). As to the kind of experiment: Hck kinase inhibition. It counts as biochemical.
Data set [4] has as its system pAkt in B220+ B cells, mouse whole blood. As to the kind of experiment: Anti-IgD-induced pAkt in mouse whole blood (in vitro). It counts as cell-based. The note with it: for IC50: B-cell, mouse whole blood in vitro, anti-IgD. As to the method:
Whole blood withdrawn from C57BL/6N mice (Charles River Laboratories, L’Arbresle, France) was incubated with PI3Kδ inhibitors for 30 min and stimulated with goat anti-mouse IgD antiserum (eBioscience, San Diego, CA, USA) for 7 min at 37°C. […] Cells were stained with rabbit anti-pAkt (Ser473) for 1 h followed by anti-IgD-FITC, anti-B220-PerCP-Cy5.5 (all BD Biosciences Pharmingen, San Diego, CA, USA), and donkey anti-rabbit IgG-Alexa647 (Invitrogen, Carlsbad, CA, USA) for 30 min at room temperature. B220^+IgD^+ cells were gated for pAkt analysis.

Another data set concerns the target PI3K γ (Homo sapiens, UniProt P48736). As to the kind of experiment: Scintillation proximity assay, PI3Kγ enzymatic activity. Type of data set: biochemical. The note with it: 65 μM ATP, read-out: Enzymatic potency IC50. On the technique in general: Scintillation proximity formats need no separation of bound from free tracer.
In data set [5] the test system is CD4+CD45RA− memory T-cells. As to the kind of experiment: T-cell cytokine release assay (anti-CD3/anti-CD28). The note with it: for IC50: Homo sapiens, T-cell, 120 h, memory T-cells, anti-CD3 and anti-CD28, 5 days. Type of data set: cell-based, human. As for the experimental part: Purified T-cells were incubated with PI3Kδ inhibitors for 1 h, and stimulated with 5 μg/ml anti-CD3 and 2 μg/ml anti-CD28 for 5 days. Cytokines in the supernatants were measured with Luminex® xMAP® multiplex bead assay kits (Bio-Rad, Hercules, CA, USA).

Data set [6] is described as follows: Unbound plasma protein binding, mouse. Type of data set: in vitro ADME. The note with it: unbound fraction.
Source text: as §1, §2

Usually IC50 stands for the concentration needed to halve the response being measured. As usually defined, the ED50 is the dose at which the effect has come halfway, by size or by number of responders.

Sequence of Hck (P08631 whole entry, species assumed): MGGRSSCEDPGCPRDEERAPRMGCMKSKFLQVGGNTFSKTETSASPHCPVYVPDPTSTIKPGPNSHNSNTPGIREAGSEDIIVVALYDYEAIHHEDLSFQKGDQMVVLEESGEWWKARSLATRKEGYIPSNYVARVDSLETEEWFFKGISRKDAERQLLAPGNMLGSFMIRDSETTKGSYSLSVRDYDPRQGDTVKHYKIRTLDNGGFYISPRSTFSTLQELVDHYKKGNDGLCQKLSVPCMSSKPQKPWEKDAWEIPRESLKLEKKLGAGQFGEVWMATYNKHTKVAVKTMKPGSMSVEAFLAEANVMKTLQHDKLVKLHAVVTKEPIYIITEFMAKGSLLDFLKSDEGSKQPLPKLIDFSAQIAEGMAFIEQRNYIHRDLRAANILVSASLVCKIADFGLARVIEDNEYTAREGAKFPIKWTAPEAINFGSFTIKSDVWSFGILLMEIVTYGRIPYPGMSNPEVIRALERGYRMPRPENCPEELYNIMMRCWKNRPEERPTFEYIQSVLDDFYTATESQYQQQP
Sequence of PI3K γ (P48736 whole entry): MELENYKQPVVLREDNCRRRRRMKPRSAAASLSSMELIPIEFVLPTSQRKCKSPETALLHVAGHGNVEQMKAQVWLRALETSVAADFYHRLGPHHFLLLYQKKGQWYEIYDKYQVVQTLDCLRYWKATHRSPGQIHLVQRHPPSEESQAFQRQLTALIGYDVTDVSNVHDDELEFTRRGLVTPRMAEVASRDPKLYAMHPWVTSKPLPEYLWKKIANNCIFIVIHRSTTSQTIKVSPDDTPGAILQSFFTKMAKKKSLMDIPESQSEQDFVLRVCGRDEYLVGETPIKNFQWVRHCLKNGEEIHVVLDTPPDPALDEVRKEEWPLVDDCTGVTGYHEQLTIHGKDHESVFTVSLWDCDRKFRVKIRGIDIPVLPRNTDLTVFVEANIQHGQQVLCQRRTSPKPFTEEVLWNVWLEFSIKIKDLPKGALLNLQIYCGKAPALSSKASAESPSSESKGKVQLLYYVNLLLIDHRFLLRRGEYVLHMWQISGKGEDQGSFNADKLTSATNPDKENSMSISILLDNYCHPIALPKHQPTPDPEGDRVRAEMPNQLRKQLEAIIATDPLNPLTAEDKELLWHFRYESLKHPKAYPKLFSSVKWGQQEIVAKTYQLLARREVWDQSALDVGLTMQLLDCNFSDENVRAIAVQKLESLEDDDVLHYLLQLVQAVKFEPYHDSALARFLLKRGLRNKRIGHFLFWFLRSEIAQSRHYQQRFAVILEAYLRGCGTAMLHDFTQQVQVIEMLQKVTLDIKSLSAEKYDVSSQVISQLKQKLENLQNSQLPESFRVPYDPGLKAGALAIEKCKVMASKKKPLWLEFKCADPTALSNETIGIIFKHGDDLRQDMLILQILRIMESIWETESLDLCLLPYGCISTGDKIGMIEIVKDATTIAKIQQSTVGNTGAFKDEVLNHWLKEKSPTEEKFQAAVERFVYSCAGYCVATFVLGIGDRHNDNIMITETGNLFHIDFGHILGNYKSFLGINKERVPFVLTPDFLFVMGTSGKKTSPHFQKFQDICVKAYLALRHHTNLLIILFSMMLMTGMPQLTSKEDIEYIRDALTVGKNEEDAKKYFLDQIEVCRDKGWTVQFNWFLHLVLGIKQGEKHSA

As to `O=C(c1nn([C@@H]2CCCN(CCN3CCOCC3)C2)c2c1CS(=O)(=O)c1cc(F)ccc1-2)N1CCOCC1` [MSC2364588, (R)-7-fluoro-3-(morpholin-4-ylcarbonyl)-1-[1-(2-morpholin-4-ylethyl)piperidin-3-yl]-1,4-dihydrothiochro-meno[4,3-c]pyrazole 5,5-dioxide], the IC50 was 9 nM with CD19+ B cells (read-out: IC50 IL-6); 10 nM in the data set on CD19+ B cells (read-out: IC50 IL-10); 18 nM with CD19+ B cells (read-out: IC50 TNF-α); 16 nM in data set [2] (average, read-out: average IC50 for CD69); 18 nM in data set [2] (representative experiment of Figure 5B, read-out: IC50 CD69); over 10000 nM against Hck. The IC50 was 35 nM in data set [4] (average, read-out: average IC50 for pAkt); 59 nM in data set [4] (representative experiment of Figure 5A, read-out: IC50 pAkt); over 20000 nM on PI3K γ; 23 nM in data set [5] (read-out: IC50 IL-6); 18 nM in [5] (read-out: IC50 IL-10); 16 nM in [5] (read-out: IC50 IL-17). In addition, in [5] (read-out: IC50 TNF-α), the IC50 stood at 57 nM. Also, the figures for the microsomal CLint in data set [1] and in data set [3] were 35 µL/min/mg and 21 µL/min/mg, respectively. The “Effect on pAkt and CD69” value with pAkt and CD69 in B cells (6 h post administration) was “almost no effect”. The ED50 in the data set with pAkt and CD69 in B cells (1 h time point) was 3 mg/kg; in the data set on pAkt and CD69 in B cells (2 h), about 10 mg/kg. Moreover, the results for the “Potency relative to MSC2360844” value in data set [4] (mouse whole blood in vitro assay) and in data set [5] (T-cell cytokines) were “approximately 10 folds” and 10 times, respectively. In data set [6], this compound had a uPPB % of 65%.
